Legend:
[1] = Crystal form conversion (heat treatment, suspension competition test, DSC analysis); type: physicochemical; conditions: for Crystal form conversion / relative stability in suspension competition test: equal amounts mixed, RT/50, magnetic stirring ~1000 rpm, about 20 hours
Text: The mutual conversion relationship among the A, B, C, D crystal forms of the sodium salt is further studied in this embodiment by heat treatment under nitrogen protection and suspension competition test.
However, the methods of heating, suspension pulping as well as grinding can not study the thermodynamic conversion relationship between crystal form A and crystal form D. In order to further study the thermodynamic conversion relationship of crystal form A and crystal form D, analyzed from the DSC pattern, the DSC of crystal form A is shown in FIG. 2, and the DSC of crystal form D is shown in FIG. 11, the melting point of crystal form A is higher than that of crystal form D, whereas the enthalpy of melting of crystal form A is much lower than that of crystal form D. It may be judged from the thermodynamic stability relationship table that if TA>TD, ΔHf, A>ΔHf, D, crystal form A and D is a univariate relationship, crystal form A is stable, if TA>TD, ΔHf, A<ΔHf, D, crystal forms A and D are reciprocal relationships, if the temperature is higher than the transcrystallization temperature, crystal form A is stable, and if the temperature is lower than the transcrystallization temperature, crystal form D is stable.

[2] = Hygroscopicity (vapor sorption analyser, DVS); type: physicochemical; conditions: for Percentage weight gain by moisture absorption: 90% RH, 25° C.; for Hygroscopicity (in words): according to Table 7, 90% RH
Method: Single crystalline sample of compound TJ01-013 is tested using a Waters vaporsorption analyser. Taking a dry weighing tray, and laying a single sample of crystal form flat in the weighing tray, and the volume of the loaded samples is about ⅓ to ⅔ of that of the weighing tray. Instrument parameters are set as follows: temperature: 25° C.; equilibrium: dm/dt=0.01%/min (minimum time: 10 minutes, and maximum time: 180 minutes); drying: drying 120 minutes under 0% RH; RH (%) testing gradient: 10%; RH (%) test gradient range: 0%-90%-0%.

| SMILES | Percentage weight gain by moisture absorption [2] [%] | Hygroscopicity (in words) [2] | also measured |
| --- | --- | --- | --- |
| O=C(O)C[S+]([O-])c1cc(NS(=O)(=O)c2ccc(Br)cc2)c2ccccc2c1O (stereo not drawn) [Embodiment 1] | – | – | Crystal form conversion / relative stability in suspension competition test ([1]; listed as crystal form A): more stable than crystal form B, C |
| O=C(O)C[S+]([O-])c1cc(NS(=O)(=O)c2ccc(Br)cc2)c2ccccc2c1O (stereo not drawn) [Embodiment 2] | – | – | Crystal form conversion / relative stability in suspension competition test ([1]; listed as crystal form B): able to be converted into crystal form A, D; Crystal form conversion on heat treatment ([1]; heating to 106° C. and then cooling to room temperature, nitrogen protection): converted into crystal form C |
| O=C(O)C[S+]([O-])c1cc(NS(=O)(=O)c2ccc(Br)cc2)c2ccccc2c1O (stereo not drawn) [Embodiment 3] | – | – | Crystal form conversion / relative stability in suspension competition test ([1]; listed as crystal form C): able to be converted into crystal form A, D |
| O=C(O)C[S+]([O-])c1cc(NS(=O)(=O)c2ccc(Br)cc2)c2ccccc2c1O (stereo not drawn) [Embodiment 5] | 2.655 | slightly hygroscopic | – |
| O=C(O)C[S+]([O-])c1cc(NS(=O)(=O)c2ccc(Br)cc2)c2ccccc2c1O (stereo not drawn) [Embodiment 6] | 7.275 | – | – |
| O=C(O)C[S+]([O-])c1cc(NS(=O)(=O)c2ccc(Br)cc2)c2ccccc2c1O (stereo not drawn) [Embodiment 7] | 2.313 | slightly hygroscopic | – |
| O=C(O)C[S+]([O-])c1cc(NS(=O)(=O)c2ccc(Br)cc2)c2ccccc2c1O (stereo not drawn) [Embodiment 9] | 0.7884 | slightly hygroscopic | – |
| O=C(O)C[S+]([O-])c1cc(NS(=O)(=O)c2ccc(Br)cc2)c2ccccc2c1O (stereo not drawn) [Embodiment 10] | 0.2033 | slightly hygroscopic | – |
| O=C(O)C[S+]([O-])c1cc(NS(=O)(=O)c2ccc(Br)cc2)c2ccccc2c1O (stereo not drawn) [Embodiment 11] | 1.897 | slightly hygroscopic | – |
| O=C(O)C[S+]([O-])c1cc(NS(=O)(=O)c2ccc(Br)cc2)c2ccccc2c1O (stereo not drawn) [Embodiment 12] | 6.026 | – | – |
| O=C(O)C[S+]([O-])c1cc(NS(=O)(=O)c2ccc(Br)cc2)c2ccccc2c1O (stereo not drawn) [Embodiment 13] | 0.439 | slightly hygroscopic | – |
